Laboratory results: ChEMBL document CHEMBL1201862, “PubChem BioAssay data set” (2004)
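Each compound was tested at five concentrations against cells in 96-well plates for 48 hours. Abbreviation: GI50, concentration required for 50% inhibition of growth.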 Active and inactive are the calls of the source. Rule as the data show it: active = GI50 up to about 1.1 µM and inactive = higher.

How the values were obtained:
Test in all cases: inhibition of tumour cell growth, NCI panel, 48 h
HL-60 = tested on: HL-60
KM-20L2 = tested on: KM-20L2
SW-620 = tested on: SW-620
NCI-H226 = tested on: NCI-H226
HT-29 = tested on: HT-29
RPMI-8226 = tested on: RPMI-8226
M19-MEL = tested on: M19-MEL
HCT-116 = tested on: HCT-116
SK-MEL-5 = tested on: SK-MEL-5
SR = tested on: SR
CAKI-1 = tested on: CAKI-1
DMS-273 = tested on: DMS-273
SNB-78 = tested on: SNB-78
EKVX = tested on: EKVX
XF498 = tested on: XF498
DU-145 = tested on: DU-145
Hs-578T = tested on: Hs-578T
NCI/ADR-RES = tested on: NCI/ADR-RES
BT-549 = tested on: BT-549
MCF7 = tested on: MCF7

Compound | GI50 (HL-60) | GI50 (KM-20L2) | GI50 (SW-620) | GI50 (NCI-H226) | GI50 (HT-29) | GI50 (RPMI-8226) | GI50 (M19-MEL) | GI50 (HCT-116) | GI50 (SK-MEL-5) | GI50 (SR) | GI50 (CAKI-1) | GI50 (DMS-273) | GI50 (SNB-78) | GI50 (EKVX) | GI50 (XF498) | GI50 (DU-145) | GI50 (Hs-578T) | GI50 (NCI/ADR-RES) | GI50 (BT-549) | GI50 (MCF7)
CC1CN(C(=O)CN2CCC(CCCCN(C)C)CC2)c2ccccc2NC1=O (stereo not given) | > 100 µM (inactive) | > 100 µM (inactive) | > 100 µM (inactive) | > 100 µM (inactive) | > 100 µM (inactive) | > 100 µM (inactive) | > 100 µM (inactive) | > 100 µM (inactive) | > 100 µM (inactive) | > 100 µM (inactive) | 90.6 µM (inactive) | > 100 µM (inactive) |  |  |  |  |  |  |  | 
CCOc1ccc(NC(=O)/C(=C\c2ccc(C)cc2)C(C)=O)cc1 | < 0.01 µM (active) | > 100 µM (inactive) | > 100 µM (inactive) | > 100 µM (inactive) | > 100 µM (inactive) | > 100 µM (inactive) | > 100 µM (inactive) | > 100 µM (inactive) | > 100 µM (inactive) | < 0.01 µM (active) | > 100 µM (inactive) | > 100 µM (inactive) | > 100 µM (inactive) | > 100 µM (inactive) |  |  |  |  |  | 
COC(=O)N(C(=O)OC)C(C(=O)O)C(C)C (stereo not given) | > 100 µM (inactive) | > 100 µM (inactive) | > 100 µM (inactive) | > 100 µM (inactive) | > 100 µM (inactive) |  | > 100 µM (inactive) |  |  |  | > 100 µM (inactive) | > 100 µM (inactive) | > 100 µM (inactive) | > 100 µM (inactive) |  |  |  |  |  | 
O=C(c1ccccc1)c1c(CC(O)c2ccccn2)n(C(=O)c2ccccc2)c2ccccc12 (stereo not given) | > 10 µM (inactive) | 18.5 µM (inactive) | 31.4 µM (inactive) | 20.5 µM (inactive) | 15 µM (inactive) | 21.3 µM (inactive) | 20.8 µM (inactive) | 14 µM (inactive) | 13.9 µM (inactive) | 15.1 µM (inactive) | 36.6 µM (inactive) | 23.6 µM (inactive) |  |  | 20.4 µM (inactive) |  |  |  |  | 
COc1ccc(C2=Nc3ccccc3SC(C)C2)cc1OC (stereo not given) | 22.4 µM (inactive) | 18.8 µM (inactive) | 5.66 µM (inactive) | 20.4 µM (inactive) | 19.7 µM (inactive) | 13.8 µM (inactive) |  | 17.7 µM (inactive) | 17.9 µM (inactive) | 20.8 µM (inactive) | 19.6 µM (inactive) | 16.7 µM (inactive) | 27.4 µM (inactive) | 24.5 µM (inactive) | 18.2 µM (inactive) |  |  |  |  | 
O=C1Nc2ccc(Br)cc2/C1=N/Nc1ccc([N+](=O)[O-])cc1[N+](=O)[O-] | 1.92 µM (inactive) | 3.14 µM (inactive) | 3.18 µM (inactive) |  | 3.78 µM (inactive) | 2.81 µM (inactive) | 3.54 µM (inactive) | 1.55 µM (inactive) | 1.83 µM (inactive) | 2.86 µM (inactive) | 13.9 µM (inactive) |  | 4.51 µM (inactive) | 11.3 µM (inactive) |  |  |  |  |  | 
CCCCC#COS(=O)(=O)c1ccc(C)cc1 | > 100 µM (inactive) | 75.9 µM (inactive) | > 100 µM (inactive) | 14.7 µM (inactive) | > 100 µM (inactive) | 46.2 µM (inactive) | 69.7 µM (inactive) | 82.8 µM (inactive) | > 100 µM (inactive) | 53 µM (inactive) | > 100 µM (inactive) |  | > 100 µM (inactive) | 56.6 µM (inactive) |  |  |  |  |  | 
Cn1cc(-c2ccc3c4ccccc4n(C)c3c2)c2ccccc21 | 75 µM (inactive) | > 100 µM (inactive) | > 100 µM (inactive) | > 100 µM (inactive) | 89.9 µM (inactive) | > 100 µM (inactive) | > 100 µM (inactive) | > 100 µM (inactive) | > 100 µM (inactive) |  | > 100 µM (inactive) |  | > 100 µM (inactive) | > 100 µM (inactive) |  |  |  |  |  | 
C#C[C@]1(O)CC[C@H]2[C@@H]3CCC4=C/C(=N\OCCN5CCCCC5)CC[C@]4(C)[C@H]3CC[C@@]21C | 3.19 µM (inactive) |  | 4.33 µM (inactive) | 17.2 µM (inactive) | 6.67 µM (inactive) | 2.43 µM (inactive) |  | 4.31 µM (inactive) | 2.23 µM (inactive) | 1.48 µM (inactive) | 6.21 µM (inactive) |  |  | 8.15 µM (inactive) |  | 8.51 µM (inactive) | 3.53 µM (inactive) | 3.52 µM (inactive) | 5.89 µM (inactive) | 3.34 µM (inactive)
C=C(C)C(O)C(O)C[C@@H](C)C1CC[C@]23C[C@]12CCC1[C@@]2(C)CCC(OC(C)=O)C(C)(C)C2CC(OC2OC(CO)C(O)C(O)C2O)[C@]13C (stereo not given in full) | 18.1 µM (inactive) |  | 16.7 µM (inactive) | 20.6 µM (inactive) | 18.2 µM (inactive) | 21.5 µM (inactive) |  | 15.9 µM (inactive) | 18.9 µM (inactive) | 18.7 µM (inactive) | > 100 µM (inactive) |  |  | 42.2 µM (inactive) |  | 21.2 µM (inactive) | 21 µM (inactive) | > 100 µM (inactive) | 14.5 µM (inactive) | 17 µM (inactive)
NC(CCc1ncc(C(=O)O)s1)C(=O)O (stereo not given) |  |  | > 100 µM (inactive) | > 100 µM (inactive) | > 100 µM (inactive) | > 100 µM (inactive) | > 100 µM (inactive) | > 100 µM (inactive) | > 100 µM (inactive) |  | > 100 µM (inactive) |  | > 100 µM (inactive) | > 100 µM (inactive) |  |  |  |  |  | 
